Assay results: patent US20240124409A1, “GUAIANOLIDE SESQUITERPENE LACTONE DERIVATIVES AND PHARMACEUTICAL USE THEREOF” (NANJING UNIVERSITY OF CHINESE MEDICINE, priority 2021, published 2024)
In brackets after ≈: the same amount, converted by molar mass.

Experiments:
[1] = Conversion of Compound 23 to Compound 1 in HEPES7.4 solution; format: physicochemical; conditions: HEPES buffer solution, 37° C.
Method: Formulation of HEPES 7.4 solution: 1.6 g of NaCl, 0.074 g of KCl, 0.027 g of Na2HPO4, 0.2 g of glucose and 1 g of a 4-hydroxyethyl piperazine ethanesulfonic acid (HEPES) solution were placed in 90 mL of distilled water, the pH of which was adjusted to 7.4 with 0.5 M NaOH, and then the volume was adjusted to 100 mL with distilled water.
250 μL of the mouse serum or the HEPES7.4 solution was added into the sample, incubated at 37° C., and sampled at different time points, respectively. 20 μL of samples were taken into EP tubes, into which was added 60 μL of methanol, vortexed to mix well, and centrifuged at 12000 rpm at 4° C. for 10 min. The supernatants were taken at 1 h, 2 h, 4 h, 8 h and 12 h, respectively. The samples were analyzed by HPLC with an injection volume of 10 μL, and the corresponding peak areas were recorded. The chromatographic conditions were as follows: the chromatographic column was Hanbang C18 (4.6×250 mm, 5 um); the mobile phase was acetonitrile: […] of ammonium formate solution =60: 40; the flow rate was 1.0 mL/min; the detection wavelength was 210 nm; and the column temperature was 30° C.

[2] = Safety investigation of Compound 23, 30 days in mice; format: in vivo, C57BL/6 mice; conditions: for body weight: in % (unit assumed)
NLRP3 inflammasome = conditions: read-out: inhibitory activity against the NLRP3 inflammasome activation, EC50; cited from earlier work
Solubility test in water = format: physicochemical; conditions: thermodynamic from solid; deionized water, 37° C.
Method: Saturated solutions were formulated, filtered and analyzed by HPLC with a sample volume of 1 μL, 3 μL, 5 μL, 10 μL, 15 µL and 20 μL sequentially, and the standard curves of the corresponding compounds were drawn.
[…] of the above compounds were formulated, dissolved by ultrasound for 4 h, and placed on a water bath at 37° C. to stand for 1 h. The resulting unsaturated solutions were centrifuged. 30 μL of supernatants were removed, diluted by adding 200 μL of deionized water, and then filtered.

Compound: CN(C)C[C@@H]1C(=O)O[C@H]2[C@H]1CC[C@@]1(C)C[C@]13CC[C@@](C)(O)[C@H]23 [Compound 23]
- content of Compound 1 (converted from Compound 23) ([1]; 1 h): 5.36%
- content of Compound 1 (converted from Compound 23) ([1]; 2 h): 11.05%
- content of Compound 1 (converted from Compound 23) ([1]; 4 h): 19.64%
- content of Compound 1 (converted from Compound 23) ([1]; 8 h): 39.29%
- content of Compound 1 (converted from Compound 23) ([1]; 12 h): 55.36%
- activities of the mice after each administration ([2]; 500 and 1000 mg/kg): relatively reduced
- time to return to normal after administration ([2]; 500 and 1000 mg/kg): 1 to 2 h
- mortality ([2]; 500 and 1000 mg/kg, 30 days): none of the mice die
- effect on body weights ([2]; 500 and 1000 mg/kg, female and male mice): no obvious effect on the body weights
- body weight ([2]; female, 500 mg/kg i.g. daily, Day 1): 100.00 ± 0.00
- body weight ([2]; female, 500 mg/kg i.g. daily, Day 5): 100.41 ± 0.43
- body weight ([2]; female, 500 mg/kg i.g. daily, Day 10): 99.01 ± 1.34
- body weight ([2]; female, 500 mg/kg i.g. daily, Day 15): 100.03 ± 0.95
- body weight ([2]; female, 500 mg/kg i.g. daily, Day 20): 100.52 ± 0.74
- body weight ([2]; female, 500 mg/kg i.g. daily, Day 25): 99.81 ± 1.72
- body weight ([2]; female, 500 mg/kg i.g. daily, Day 30): 99.79 ± 2.55
- body weight ([2]; female, 1000 mg/kg i.g. daily, Day 1): 100.00 ± 0.00
- body weight ([2]; female, 1000 mg/kg i.g. daily, Day 5): 101.96 ± 0.55
- body weight ([2]; female, 1000 mg/kg i.g. daily, Day 10): 101.80 ± 2.02
- body weight ([2]; female, 1000 mg/kg i.g. daily, Day 15): 99.77 ± 2.60
- body weight ([2]; female, 1000 mg/kg i.g. daily, Day 20): 101.04 ± 2.13
- body weight ([2]; female, 1000 mg/kg i.g. daily, Day 25): 99.06 ± 3.56
- body weight ([2]; female, 1000 mg/kg i.g. daily, Day 30): 100.67 ± 0.91
- body weight ([2]; male, 500 mg/kg i.g. daily, Day 1): 100.00 ± 0.00
- body weight ([2]; male, 500 mg/kg i.g. daily, Day 5): 100.31 ± 0.89
- body weight ([2]; male, 500 mg/kg i.g. daily, Day 10): 101.51 ± 4.00
- body weight ([2]; male, 500 mg/kg i.g. daily, Day 15): 99.27 ± 2.11
- body weight ([2]; male, 500 mg/kg i.g. daily, Day 20): 101.29 ± 0.40
- body weight ([2]; male, 500 mg/kg i.g. daily, Day 25): 98.93 ± 0.60
- body weight ([2]; male, 500 mg/kg i.g. daily, Day 30): 100.10 ± 1.08
- body weight ([2]; male, 1000 mg/kg i.g. daily, Day 1): 100.00 ± 0.00
- body weight ([2]; male, 1000 mg/kg i.g. daily, Day 5): 101.48 ± 1.30
- body weight ([2]; male, 1000 mg/kg i.g. daily, Day 10): 101.22 ± 0.84
- body weight ([2]; male, 1000 mg/kg i.g. daily, Day 15): 100.47 ± 1.28
- body weight ([2]; male, 1000 mg/kg i.g. daily, Day 20): 100.15 ± 2.76
- body weight ([2]; male, 1000 mg/kg i.g. daily, Day 25): 98.35 ± 1.14
- body weight ([2]; male, 1000 mg/kg i.g. daily, Day 30): 100.71 ± 0.53

Compound: C=C1C(=O)O[C@@H]2[C@H]3C(C)=CC[C@@]34O[C@@]4(C)CC[C@@H]12 [arglabin, reference compound]
- EC50 (NLRP3 inflammasome): 10 nM

Compound: C=C1C(=O)O[C@@H]2[C@@H]3[C@]4(CC[C@@]3(C)O)C[C@]4(C)CC[C@@H]12 [Compound 1]
- solubility (Solubility test in water): 1140 µg/mL (≈ 4.35 mM)
